The test system of test [1] is human colon cancer cell line HCT116. Briefly: Cell proliferation inhibitory activity (Cell Counting Kit-8), colon cancer HCT116. The class given is cell-based. Particulars: HCT-116, 96 h, HCT116, 4 days. The essentials: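 HCT116 cells (2000/well) were exposed to compounds for 4 days at 37 °C under CO2. Viability was then read with CCK-8 as absorbance at 450 nm (reference 615 nm).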
A general note: Formazan colour is commonly taken as a measure of viable cells.

The target of a further test is human PI3K(p110α/p85α) (Homo sapiens, UniProt P42336). Description: Measurement of PI3K inhibitory activity (AlphaScreen GST Detection Kit). It counts as biochemical. Particulars: 10 μM ATP, 4 μM PI(4,5)P2, read-out: Enzyme inhibitory activity (IC50, μM) PI3K α. A digest of the protocol:
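Baculovirus-expressed human p110α/p85α was preincubated with compound for 20 min at room temperature, then reacted with 4 μM PI(4,5)P2 and 10 μM ATP (pH 7.5, 2.5 mM MgCl2) for 15 min at 37 °C. PIP3 product was detected by AlphaScreen competition of GST-GRP1 with biotin-PI(3,4,5)P3 after 1 h at room temperature.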
For orientation: Alpha assays give light when donor and acceptor beads are brought close together.

Test [2] has as its system human prostate cancer cell line PC3. Briefly: Cell proliferation inhibitory activity (Cell Counting Kit-8), prostate cancer PC3. It counts as cell-based. Particulars: 96 h, PC3, 4 days. The essentials: (§1)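 PC3 (3000 cells/well) or NCI-H460 (1000 cells/well) exposed to compound for 4 days at 37 °C in CO2. CCK-8 absorbance at 450 nm (reference 615 nm); percent proliferation inhibition calculated at 2.5 µM.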

Test [3] concerns human lung cancer cell line NCI-H460. Briefly: Cell proliferation inhibitory activity (Cell Counting Kit-8), lung cancer NCI-H460. The settings on record: 96 h, NCI-H460, 4 days, read-out: Cell proliferation inhibitory activity (% Inhibition at 2.5 μM) Non-small cell lung cancer (NCI-H460). The class given is cell-based. The essentials:
as §1

Counter-ions that a name gives are not always drawn.

human PI3K(p110α/p85α), sequence (P42336 whole entry): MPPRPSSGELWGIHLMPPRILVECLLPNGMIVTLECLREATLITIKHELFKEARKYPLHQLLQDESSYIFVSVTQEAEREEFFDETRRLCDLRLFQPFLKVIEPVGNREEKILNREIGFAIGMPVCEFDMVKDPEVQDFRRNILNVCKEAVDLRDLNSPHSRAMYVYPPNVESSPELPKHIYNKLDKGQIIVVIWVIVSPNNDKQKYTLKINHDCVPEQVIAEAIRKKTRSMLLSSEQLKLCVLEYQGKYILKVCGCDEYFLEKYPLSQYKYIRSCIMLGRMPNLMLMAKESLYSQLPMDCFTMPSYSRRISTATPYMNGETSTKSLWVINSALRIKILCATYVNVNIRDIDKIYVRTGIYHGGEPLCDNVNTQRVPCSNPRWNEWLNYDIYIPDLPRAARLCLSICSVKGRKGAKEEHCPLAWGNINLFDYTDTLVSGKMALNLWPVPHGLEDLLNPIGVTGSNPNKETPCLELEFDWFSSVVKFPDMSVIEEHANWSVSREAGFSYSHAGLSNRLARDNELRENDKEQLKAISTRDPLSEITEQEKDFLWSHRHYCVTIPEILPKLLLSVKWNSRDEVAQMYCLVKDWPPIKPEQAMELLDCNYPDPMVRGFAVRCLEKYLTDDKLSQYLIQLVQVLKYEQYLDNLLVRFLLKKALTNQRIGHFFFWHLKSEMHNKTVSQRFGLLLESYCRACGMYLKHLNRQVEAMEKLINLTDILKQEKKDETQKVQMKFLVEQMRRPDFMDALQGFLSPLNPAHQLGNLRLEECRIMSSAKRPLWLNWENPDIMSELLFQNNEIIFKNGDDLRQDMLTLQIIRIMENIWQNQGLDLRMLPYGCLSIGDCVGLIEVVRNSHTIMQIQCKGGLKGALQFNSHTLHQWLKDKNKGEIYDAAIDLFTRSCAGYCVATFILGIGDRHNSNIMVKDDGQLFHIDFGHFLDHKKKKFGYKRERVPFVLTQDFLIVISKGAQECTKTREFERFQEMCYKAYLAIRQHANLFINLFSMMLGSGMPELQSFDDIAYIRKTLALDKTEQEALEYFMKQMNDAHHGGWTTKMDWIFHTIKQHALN
human PI3K(p110α/p85α), sequence (P27986 whole entry partner): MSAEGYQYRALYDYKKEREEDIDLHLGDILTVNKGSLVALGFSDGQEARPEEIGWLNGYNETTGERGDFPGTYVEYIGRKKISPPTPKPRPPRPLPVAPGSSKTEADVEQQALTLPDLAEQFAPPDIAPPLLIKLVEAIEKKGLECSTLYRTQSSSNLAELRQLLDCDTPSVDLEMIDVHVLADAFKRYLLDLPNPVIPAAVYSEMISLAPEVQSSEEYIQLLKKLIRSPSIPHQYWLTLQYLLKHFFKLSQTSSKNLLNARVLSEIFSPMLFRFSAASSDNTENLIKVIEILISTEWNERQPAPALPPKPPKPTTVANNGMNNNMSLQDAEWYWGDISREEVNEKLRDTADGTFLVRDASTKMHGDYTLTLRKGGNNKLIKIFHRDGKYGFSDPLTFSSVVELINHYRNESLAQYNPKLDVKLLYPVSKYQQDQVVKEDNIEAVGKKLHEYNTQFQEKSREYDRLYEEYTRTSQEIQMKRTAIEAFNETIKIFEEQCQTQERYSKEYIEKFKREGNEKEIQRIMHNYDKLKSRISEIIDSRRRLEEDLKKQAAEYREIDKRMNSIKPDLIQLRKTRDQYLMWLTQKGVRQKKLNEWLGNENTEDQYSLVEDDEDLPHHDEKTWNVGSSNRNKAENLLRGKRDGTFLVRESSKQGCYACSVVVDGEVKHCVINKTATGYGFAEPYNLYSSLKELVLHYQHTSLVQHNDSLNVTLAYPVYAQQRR

In the case of `CCN1CCN(C(=O)c2ccc(C)c(NC(=S)N3CCc4c(-c5cnc(N)nc5)nc(N5CCOCC5)nc43)c2)CC1` [Example D-17, 4-(2-Amino-pyrimidin-5-yl)-2-morpholin-4-yl-5,6-dihydro-pyrrolo[2,3-d]pyrimidine-7-carbothioic acid [5-(4-ethyl-piperazine-1-carbonyl)-2-methyl-phenyl]-amide], the inhibition at 2.5 µM was found to be 96% in test [1], 93% in test [2] and 97% in test [3]. Moreover, the IC50 (as a rule, the concentration that gives 50% inhibition) on human PI3K(p110α/p85α) amounted to 0.024 µM.
For the compound `Cc1cc(C(=O)N2CCOCC2)ccc1N1CCc2c(-c3cnc(N)nc3)nc(N3CCOCC3)nc21` [Example D-137, {4-[4-(2-Amino-pyrimidin-5-yl)-2-morpholin-4-yl-5,6-dihydro-pyrrolo[2,3-d]pyrimidin-7-yl]-3-methyl-phenyl}-morpholin-4-yl-methanone], the values for the inhibition at 2.5 µM in test [1], in test [2] and in test [3] were 60%, 71% and 52%, respectively. In addition, on human PI3K(p110α/p85α), the IC50 is 0.092 µM.
As for `CCCN1CCN(Cc2ccc(N3CCc4c(-c5cnc(N)nc5)nc(N5CCOCC5)nc43)cc2)CC1` [Example D-327, 5-{2-morpholin-4-yl-7-[4-(4-propyl-piperazin-1-ylmethyl)-phenyl]-6,7-dihydro-5H-pyrrolo[2,3-d]pyrimidin-4-yl}-pyrimidin-2-ylamine], the inhibition at 2.5 µM in test [1] stood at 78%; in test [2], 79%; in test [3] it was 85%. At human PI3K(p110α/p85α), the IC50 stood at 0.07 µM.
For the compound `CCN1CCN(c2cc(N3CCc4c(-c5cnc(N)nc5)nc(N5CCOCC5)nc43)ccn2)CC1` [Example H-34, 5-{7-[2-(4-Ethyl-piperazin-1-yl)-pyridin-4-yl]-2-morpholin-4-yl-6,7-dihydro-5H-pyrrolo[2,3-d]pyrimidin-4-yl}-pyrimidin-2-ylamine], the inhibition at 2.5 µM in test [1] came to 81%; in test [2], 91%; in test [3], 89%. The IC50 on human PI3K(p110α/p85α) came to 0.011 µM.
The corresponding values for `CCN1CCN(C(=O)c2cccc(NC(=O)N3CCc4c(-c5cnc(N)nc5)nc(N5CCOCC5)nc43)c2)CC1` [Example D-101, 4-(2-Amino-pyrimidin-5-yl)-2-morpholin-4-yl-5,6-dihydro-pyrrolo[2,3-d]pyrimidine-7-carboxylic acid [3-(4-ethyl-piperazine-1-carbonyl)-phenyl]-amide] are 92%, 89%, 67% and 0.009 µM.
The corresponding values for `CCN1CCN(C(=O)c2ccc(N3CCc4c(-c5cnc(N)nc5)nc(N5CCOCC5)nc43)cn2)CC1` [Example D-95, {5-[4-(2-Amino-pyrimidin-5-yl)-2-morpholin-4-yl-5,6-dihydro-pyrrolo[2,3-d]pyrimidin-7-yl]-pyridin-2-yl}-(4-ethyl-piperazin-1-yl)-methanone] are 93%, 91%, 83% and 0.007 µM.
The corresponding values for `CN1CCN(Cc2ccc(N3CCc4c(-c5cnc(N)nc5)nc(N5CCOCC5)nc43)cc2F)CC1` [Example D-325, 5-{7-[3-fluoro-4-(4-methyl-piperazin-1-ylmethyl)-phenyl]-2-morpholin-4-yl-6,7-dihydro-5H-pyrrolo[2,3-d]pyrimidin-4-yl}-pyrimidin-2-ylamine] are 78%, 73%, 81% and 0.11 µM.
For `Oc1cc(-c2nc(N3CCOCC3)nc3c2CCN3c2ccncc2)ccc1F` [Example A-32, 2-Fluoro-5-(2-morpholin-4-yl-7-pyridin-4-yl-6,7-dihydro-5H-pyrrolo[2,3-d]pyrimidin-4-yl)-phenol trifluoroacetic acid salt], the inhibition at 2.5 µM in test [1] turned out to be 81%; in test [2], 81%; in test [3], 79%. Besides, at human PI3K(p110α/p85α), the IC50 is 0.24 µM.
With `CC(C)N1CCN(Cc2ccc(N3CCc4c(-c5cnc(N)nc5)nc(N5CCOCC5)nc43)cc2)CC1` [Example D-328, 5-{7-[4-(4-isopropyl-piperazin-1-ylmethyl)-phenyl]-2-morpholin-4-yl-6,7-dihydro-5H-pyrrolo[2,3-d]pyrimidin-4-yl}-pyrimidin-2-ylamine], the inhibition at 2.5 µM in test [1] was 84%; in test [2], 84%; in test [3] it was 91%. Also, the IC50 on human PI3K(p110α/p85α) came out at 0.06 µM.
Consider `CN(C)CCOC(=O)c1cccc(-c2nc(N3CCOCC3)nc3c2CCN3c2cccnc2)c1` [Example G-27, 3-(2-Morpholin-4-yl-7-pyridin-3-yl-6,7-dihydro-5H-pyrrolo[2,3-d]pyrimidin-4-yl)-benzoic acid 2-dimethylamino-ethyl ester], for which the inhibition at 2.5 µM amounted to 44% in test [1], 48% in test [2] and 18% in test [3]. The IC50 on human PI3K(p110α/p85α) worked out at 0.33 µM.
The corresponding values for `CN1CCN(Cc2ccc(N3CCc4c(-c5cnc(N)nc5)nc(N5CCOCC5)nc43)c(F)c2)CC1` [Example D-326, 5-{7-[2-fluoro-4-(4-methyl-piperazin-1-ylmethyl)-phenyl]-2-morpholin-4-yl-6,7-dihydro-5H-pyrrolo[2,3-d]pyrimidin-4-yl}-pyrimidin-2-ylamine] are 72%, 81%, 83% and 0.24 µM.
The corresponding values for `OCc1cc(-c2nc(N3CCOCC3)nc3c2CCN3c2ccncc2)ccc1F` [Example B-35, [2-Fluoro-5-(2-morpholin-4-yl-7-pyridin-4-yl-6,7-dihydro-5H-pyrrolo[2,3-d]pyrimidin-4-yl)-phenyl]-methanol] are 78%, 61%, 71% and 0.87 µM.
On to `Nc1ccc(-c2nc(N3CCOCC3)nc3c2CCN3c2ccncc2)cn1` [Example B-03, 5-(2-Morpholin-4-yl-7-pyridin-4-yl-6,7-dihydro-5H-pyrrolo[2,3-d]pyrimidin-4-yl)-pyridin-2-ylamine], for which the inhibition at 2.5 µM in test [1] was found to be 100%; in test [2] it was 95%; in test [3], 97%. Besides, the IC50 at human PI3K(p110α/p85α) was 0.24 µM.
As for `Nc1ncc(-c2nc(N3CCOCC3)nc3c2CCN3c2ccc(C(=O)N3CCN(c4ccncc4)CC3)cc2F)cn1` [Example D-286, {4-[4-(2-Amino-pyrimidin-5-yl)-2-morpholin-4-yl-5,6-dihydro-pyrrolo[2,3-d]pyrimidin-7-yl]-3-fluoro-phenyl}-(4-pyridin-4-yl-piperazin-1-yl)-methanone], the inhibition at 2.5 µM came to 94% in test [1], 89% in test [2] and 97% in test [3]. At human PI3K(p110α/p85α), the IC50 stood at 0.008 µM.
For the compound `CS(=O)(=O)Nc1cccc(N2CCc3c(-c4cccc(O)c4)nc(N4CCOCC4)nc32)c1` [Example A-48, N-{3-[4-(3-hydroxy-phenyl)-2-morpholin-4-yl-5,6-dihydro-pyrrolo[2,3-d]pyrimidin-7-yl]-phenyl}-methane sulfonamide trifluoroacetic acid salt], the inhibition at 2.5 µM worked out at 55% in test [1], 62% in test [2] and 67% in test [3]. Also, the IC50 on human PI3K(p110α/p85α) stood at 0.02 µM.
On to `CN1CCN(C(=O)c2ccc(NC(=S)N3CCc4c(-c5cnc(N)nc5)nc(N5CCOCC5)nc43)cc2)CC1` [Example D-231, 4-(2-Amino-pyrimidin-5-yl)-2-morpholin-4-yl-5,6-dihydro-pyrrolo[2,3-d]pyrimidine-7-carbothioic acid [4-(4-methyl-piperazine-1-carbonyl)-phenyl]-amide], for which the inhibition at 2.5 µM in test [1] stood at 33%; in test [2], 37%; in test [3] it was 71%. For the same compound, the IC50 at human PI3K(p110α/p85α) is 0.011 µM.
Regarding `Oc1cccc(-c2nc(N3CCOCC3)nc3c2CCN3c2ccncc2)c1` [Example A-09, 3-(2-Morpholin-4-yl-7-pyridin-4-yl-6,7-dihydro-5H-pyrrolo[2,3-d]pyrimidin-4-yl)-phenol], the inhibition at 2.5 µM in test [1] stood at 83%; in test [2] it was 96%; in test [3], 84%. For the same compound, the IC50 on human PI3K(p110α/p85α) amounted to 0.009 µM.
The corresponding values for `CCN1CCN(c2ccc(C)c(NC(=S)N3CCc4c(-c5cnc(N)nc5)nc(N5CCOCC5)nc43)c2)CC1` [Example D-290, 4-(2-Amino-pyrimidin-5-yl)-2-morpholin-4-yl-5,6-dihydro-pyrrolo[2,3-d]pyrimidine-7-carbothioic acid [5-(4-ethyl-piperazin-1-yl)-2-methyl-phenyl]-amide] are 99%, 99%, 18% and 0.009 µM.
In the case of `NCc1ccc(-c2nc(N3CCOCC3)nc3c2CCN3c2ccncc2)cc1` [Example B-32, 4-(2-Morpholin-4-yl-7-pyridin-4-yl-6,7-dihydro-5H-pyrrolo[2,3-d]pyrimidin-4-yl)-benzylamine hydrochloride], the inhibition at 2.5 µM turned out to be 78% in test [1], 29% in test [2] and 67% in test [3]. Further, the IC50 on human PI3K(p110α/p85α) worked out at 0.47 µM.
